Laboratory results from paper PMC10303271, “Synthesis and Receptor Binding Studies of α5 GABAAR Selective Novel Imidazodiazepines Targeted for Psychiatric and Cognitive Disorders” (Molecules, 2023).
Where two headings read alike, the source gives them in different places.

Legend:
[1] = molecular target: T1, 5-HT2B (Homo sapiens, UniProt P41595); experiment: PDSP primary binding 5-HT2B; settings: 1.5 h; primary binding, 10,000 nM; last figure of the line = mean of the 4 before it; read-out: 5-HT2B, PDSP raw data, mean
T1 construct: purchased NIMH Psychoactive Drug Screening Program (PDSP)
T1 sequence (P41595 whole entry): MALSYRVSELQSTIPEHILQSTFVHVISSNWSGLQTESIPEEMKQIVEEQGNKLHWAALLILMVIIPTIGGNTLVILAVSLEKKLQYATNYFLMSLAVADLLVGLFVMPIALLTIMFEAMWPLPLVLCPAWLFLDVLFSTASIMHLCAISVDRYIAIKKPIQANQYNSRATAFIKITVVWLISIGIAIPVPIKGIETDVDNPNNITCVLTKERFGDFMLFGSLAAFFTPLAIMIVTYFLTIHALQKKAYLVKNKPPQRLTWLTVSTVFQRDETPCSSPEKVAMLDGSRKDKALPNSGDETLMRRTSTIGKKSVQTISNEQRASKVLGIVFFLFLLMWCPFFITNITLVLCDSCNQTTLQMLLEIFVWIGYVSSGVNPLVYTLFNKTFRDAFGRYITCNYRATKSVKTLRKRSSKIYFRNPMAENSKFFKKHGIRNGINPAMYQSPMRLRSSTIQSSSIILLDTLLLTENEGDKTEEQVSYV
Method: (§1) To determine if any off-target receptor-binding effects are present, all the novel ligands were sent to the National Institute of Mental Health (NIMH), Psychoactive Drug Screening Program (PDSP). The ligands were screened over a panel of 47 receptors, ion channels, and transporters to determine any other possible interactions with […]. The hERG-binding was also determined. […] No binding of the test compounds to calcium channels was observed. […] It is necessary to screen the compounds for hERG-binding during the early process of drug discovery. The unintentional binding of many drugs to hERG can cause blockade of hERG K+ channels in the heart, which can cause many side effects including cardiac arrhythmias and sudden death. […] All of the α5 imidazodiazepines were tested for hERG-binding.
(§2) The NIMH PDSP assay protocol book [https://kidbdev.med.unc.edu/databases/PDSP%20Protocols%20II%202013-03-28.pdf accessed on 23 April 2023]. describes the protocols for primary and secondary radio-ligand binding assays. These assays were carried out in a final volume of 125 µL per well in the appropriate binding buffer.
(§3) The binding of a ligand to a receptor, ion channel, or transporter was determined in the […] of 10 µM of the appropriate reference compound. […] Plates were incubated in the dark for 90 min at rt, and the reactions were stopped by vacuum filtration onto 0.3% polyethyleneimine (PEI) soaked 96-well filter mats using a 96-well Filtermateharvester. This was followed by three washes with cold PBS buffer. Radioactivity was then counted on a Microbeta counter. Nonlinear regression was used to analyze the data with N = 6 replicates.

[2] = molecular target: T2, H4 (Homo sapiens, UniProt Q9H3N8); experiment: PDSP primary binding H4; settings: primary binding, 10,000 nM; last figure of the line = mean of the 4 before it; read-out: H4, PDSP raw data, mean
T2 construct: purchased NIMH Psychoactive Drug Screening Program (PDSP)
T2 sequence (Q9H3N8 whole entry): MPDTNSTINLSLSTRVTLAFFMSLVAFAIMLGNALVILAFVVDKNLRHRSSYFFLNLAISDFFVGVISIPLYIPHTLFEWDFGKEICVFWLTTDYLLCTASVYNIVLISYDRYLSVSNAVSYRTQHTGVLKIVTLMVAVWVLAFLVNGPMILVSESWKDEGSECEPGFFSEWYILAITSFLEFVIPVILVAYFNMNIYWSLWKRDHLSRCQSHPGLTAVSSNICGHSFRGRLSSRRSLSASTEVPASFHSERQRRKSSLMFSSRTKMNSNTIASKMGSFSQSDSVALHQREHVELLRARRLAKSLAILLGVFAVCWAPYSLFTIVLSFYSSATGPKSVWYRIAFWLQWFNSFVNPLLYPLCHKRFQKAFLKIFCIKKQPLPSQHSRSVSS
Method: as §1, §2, §3

[3] = test system: BZP rat brain site; experiment: PDSP binding at BZP rat brain site; settings: for BZP Rat Brain Site, PDSP raw data, mean: primary binding, 10,000 nM, last figure of the line = mean of the 4 before it; for Ki: N = 2, read-out: Binding Affinity BZR Secondary Screening Ki; for Ki / Binding Affinity BZR % Inhibition (Primary): rat brain; for Binding Affinity BZR % Inhibition (Primary): at 10,000 nM, N = 5
Method: The BZR binding affinity of the test compounds was also measured using rat brain BzR. […] The efficacy of imidazodiazepines on the benzodiazepine receptor depends on various factors, including the specific subtype of the receptor they bind to, their chemical structure, and the dose.
as §2, §3

[4] = molecular target: T3, M3D (Homo sapiens, UniProt P20309, A239G/Y149C); experiment: PDSP primary binding M3D; settings: primary binding, 10,000 nM; last figure of the line = mean of the 4 before it; read-out: M3D, PDSP raw data, mean
T3 construct: purchased NIMH Psychoactive Drug Screening Program (PDSP)
T3 sequence (P20309 whole entry Y149C/A239G): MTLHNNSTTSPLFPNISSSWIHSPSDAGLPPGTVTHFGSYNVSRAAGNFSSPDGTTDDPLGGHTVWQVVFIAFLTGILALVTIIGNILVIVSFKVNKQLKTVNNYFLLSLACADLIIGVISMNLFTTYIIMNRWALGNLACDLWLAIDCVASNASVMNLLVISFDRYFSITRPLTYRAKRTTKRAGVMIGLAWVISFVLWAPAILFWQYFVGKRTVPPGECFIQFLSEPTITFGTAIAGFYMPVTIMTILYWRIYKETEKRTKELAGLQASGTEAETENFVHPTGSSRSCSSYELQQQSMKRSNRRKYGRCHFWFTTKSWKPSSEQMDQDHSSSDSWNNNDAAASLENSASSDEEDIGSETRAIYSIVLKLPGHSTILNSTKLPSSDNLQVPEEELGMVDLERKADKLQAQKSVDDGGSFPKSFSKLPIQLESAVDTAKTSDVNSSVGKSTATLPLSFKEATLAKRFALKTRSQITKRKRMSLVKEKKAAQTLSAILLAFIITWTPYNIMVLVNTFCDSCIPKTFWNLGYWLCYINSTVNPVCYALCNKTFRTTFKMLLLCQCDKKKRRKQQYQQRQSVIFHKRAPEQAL
Method: as §1, §2, §3

[5] = molecular target: T4, Beta2 (Homo sapiens, UniProt P07550); experiment: PDSP primary binding Beta2; settings: 1.5 h; primary binding, 10,000 nM; last figure of the line = mean of the 4 before it; read-out: Beta2, PDSP raw data, mean
T4 construct: purchased NIMH Psychoactive Drug Screening Program (PDSP)
T4 sequence (P07550 whole entry): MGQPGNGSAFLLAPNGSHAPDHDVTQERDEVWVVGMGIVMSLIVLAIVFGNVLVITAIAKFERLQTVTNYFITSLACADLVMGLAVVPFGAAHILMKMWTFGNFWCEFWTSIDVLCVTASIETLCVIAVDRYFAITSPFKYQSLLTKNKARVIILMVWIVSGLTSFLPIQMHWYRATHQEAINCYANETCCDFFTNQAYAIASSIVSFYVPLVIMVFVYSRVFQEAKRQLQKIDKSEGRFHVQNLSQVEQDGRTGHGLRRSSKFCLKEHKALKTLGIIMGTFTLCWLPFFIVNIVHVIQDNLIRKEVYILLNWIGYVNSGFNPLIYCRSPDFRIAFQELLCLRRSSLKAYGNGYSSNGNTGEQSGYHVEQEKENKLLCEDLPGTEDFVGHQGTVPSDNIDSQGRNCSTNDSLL
Method: as §1, §2, §3

[6] = molecular target: T5, A1 (Homo sapiens, UniProt P30542); experiment: PDSP primary binding A1; settings: 1.5 h; primary binding, 10,000 nM; last figure of the line = mean of the 4 before it; read-out: A1, PDSP raw data, mean
T5 construct: purchased NIMH Psychoactive Drug Screening Program (PDSP)
T5 sequence (P30542 1-326): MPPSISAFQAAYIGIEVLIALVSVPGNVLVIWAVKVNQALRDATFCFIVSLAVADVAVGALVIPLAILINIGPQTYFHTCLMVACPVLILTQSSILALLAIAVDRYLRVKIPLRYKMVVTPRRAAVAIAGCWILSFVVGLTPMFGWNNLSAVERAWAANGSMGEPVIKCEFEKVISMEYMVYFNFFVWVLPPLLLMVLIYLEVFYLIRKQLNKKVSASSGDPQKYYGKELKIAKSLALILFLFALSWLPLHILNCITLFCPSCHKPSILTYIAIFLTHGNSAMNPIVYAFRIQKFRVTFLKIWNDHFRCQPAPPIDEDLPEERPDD
Method: as §1, §2, §3

[7] = molecular target: T6, V1A (Homo sapiens, UniProt P37288); experiment: PDSP primary binding V1A; settings: primary binding, 10,000 nM; last figure of the line = mean of the 4 before it; read-out: V1A, PDSP raw data, mean
T6 construct: purchased NIMH Psychoactive Drug Screening Program (PDSP)
T6 sequence (P37288 whole entry): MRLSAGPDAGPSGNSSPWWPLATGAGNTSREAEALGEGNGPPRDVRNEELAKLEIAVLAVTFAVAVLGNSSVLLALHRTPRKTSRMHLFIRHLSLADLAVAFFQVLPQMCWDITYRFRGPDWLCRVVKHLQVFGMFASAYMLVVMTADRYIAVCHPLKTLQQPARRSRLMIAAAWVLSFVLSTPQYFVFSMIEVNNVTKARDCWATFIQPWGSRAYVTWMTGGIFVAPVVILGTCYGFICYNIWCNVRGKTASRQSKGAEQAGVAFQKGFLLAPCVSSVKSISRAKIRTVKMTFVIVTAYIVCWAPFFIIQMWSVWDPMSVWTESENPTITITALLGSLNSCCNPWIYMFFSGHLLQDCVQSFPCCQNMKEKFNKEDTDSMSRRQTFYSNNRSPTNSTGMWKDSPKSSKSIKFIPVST
Method: as §1, §2, §3

[8] = molecular target: T7, M3 (Homo sapiens, UniProt P20309); experiment: PDSP primary binding M3; settings: primary binding, 10,000 nM; last figure of the line = mean of the 4 before it; read-out: M3, PDSP raw data, mean
T7 construct: purchased NIMH Psychoactive Drug Screening Program (PDSP)
T7 sequence (P20309 whole entry): as the sequence (P20309 whole entry Y149C/A239G) above, with C149Y, G239A counted along it
Method: as §1, §2, §3

[9] = molecular target: T8, DOR (Homo sapiens, UniProt P41143); experiment: PDSP radioligand binding at DOR
T8 construct: purchased NIMH Psychoactive Drug Screening Program (PDSP)
T8 sequence (P41143 whole entry): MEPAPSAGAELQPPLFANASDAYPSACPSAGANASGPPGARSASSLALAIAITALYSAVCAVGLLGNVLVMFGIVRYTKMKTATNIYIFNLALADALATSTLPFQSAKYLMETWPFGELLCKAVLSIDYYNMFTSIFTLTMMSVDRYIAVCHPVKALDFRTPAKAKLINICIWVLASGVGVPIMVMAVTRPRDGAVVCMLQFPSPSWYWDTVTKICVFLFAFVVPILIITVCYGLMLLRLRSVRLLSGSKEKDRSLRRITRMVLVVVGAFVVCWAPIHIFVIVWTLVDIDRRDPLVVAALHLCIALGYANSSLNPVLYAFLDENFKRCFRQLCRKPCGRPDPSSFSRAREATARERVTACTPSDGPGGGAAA
Description: Opioid receptors are a family of inhibitory G-coupled protein receptors where opioids act as the ligand. The kappa opioid receptors (KOR), µ and δ opioid receptors (MOR and DOR), and nociception opioid receptor (NOP) fall under the family of opioids receptors. It has been reported that oxadiazole imidazodiazepines can mediate analgesic and anti-inflammatory properties mediated also by the κ opioid receptor (KOR). The binding at KOR is usually silent. The affinities of the test compounds for KOR, DOR, and MOR were determined using radioligand binding assays at a screening concentration of 10,000 nM in collaboration with the National Institute of Mental Health’s Psychoactive Drug Screening Program (PDSP), as mentioned before. Concentration-dependent experiments were conducted to determine Ki values for the compounds that exceeded more than 50% radioligand displacement in primary binding assays.
as §2, §3

[10] = test system: Ca channel human; experiment: PDSP primary binding Ca channel; settings: primary binding, 10,000 nM; last figure of the line = mean of the 4 before it
Method: as §1, §2, §3

[11] = molecular target: T9, Alpha3Beta4 (Rattus norvegicus, UniProt P04757+P12392); experiment: PDSP primary binding Alpha3Beta4; settings: primary binding, 10,000 nM; last figure of the line = mean of the 4 before it; read-out: Alpha3Beta4, PDSP raw data, mean
T9 construct: purchased NIMH Psychoactive Drug Screening Program (PDSP)
T9 sequence (P04757 26-499): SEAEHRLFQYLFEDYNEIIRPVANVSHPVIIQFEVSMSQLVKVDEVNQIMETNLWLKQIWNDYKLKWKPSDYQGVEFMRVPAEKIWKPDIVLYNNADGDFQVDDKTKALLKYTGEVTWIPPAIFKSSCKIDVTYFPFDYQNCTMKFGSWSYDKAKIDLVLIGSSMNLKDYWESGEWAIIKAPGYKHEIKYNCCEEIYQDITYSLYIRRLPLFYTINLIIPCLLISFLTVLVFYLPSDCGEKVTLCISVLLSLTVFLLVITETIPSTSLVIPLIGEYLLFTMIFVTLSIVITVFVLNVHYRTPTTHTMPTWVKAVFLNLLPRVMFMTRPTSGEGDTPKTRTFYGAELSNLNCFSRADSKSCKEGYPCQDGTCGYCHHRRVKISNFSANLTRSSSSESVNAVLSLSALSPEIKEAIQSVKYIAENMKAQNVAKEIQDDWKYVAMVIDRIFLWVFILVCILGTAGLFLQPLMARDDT
T9 sequence (P12392 21-495): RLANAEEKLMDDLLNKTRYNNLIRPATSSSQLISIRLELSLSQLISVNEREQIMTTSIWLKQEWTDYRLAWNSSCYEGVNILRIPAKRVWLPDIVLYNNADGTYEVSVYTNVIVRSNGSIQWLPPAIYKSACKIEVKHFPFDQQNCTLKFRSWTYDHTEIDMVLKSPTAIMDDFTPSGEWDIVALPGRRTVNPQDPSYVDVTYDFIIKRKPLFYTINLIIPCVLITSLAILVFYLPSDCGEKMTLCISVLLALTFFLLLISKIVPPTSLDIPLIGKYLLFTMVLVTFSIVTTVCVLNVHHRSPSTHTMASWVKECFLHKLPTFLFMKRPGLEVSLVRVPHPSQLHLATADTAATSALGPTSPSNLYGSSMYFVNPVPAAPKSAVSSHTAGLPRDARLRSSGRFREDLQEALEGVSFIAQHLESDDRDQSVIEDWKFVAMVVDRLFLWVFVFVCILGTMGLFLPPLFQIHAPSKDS
Method: as §1, §2, §3

[12] = test system: Alpha7; experiment: PDSP primary binding Alpha7; settings: primary binding, 10,000 nM; last figure of the line = mean of the 4 before it
Method: as §1, §2, §3

[13] = molecular target: T10, HCA2 (Homo sapiens, UniProt Q8TDS4); experiment: PDSP primary binding HCA2; settings: primary binding, 10,000 nM; last figure of the line = mean of the 4 before it; read-out: HCA2, PDSP raw data, mean
T10 construct: purchased NIMH Psychoactive Drug Screening Program (PDSP)
T10 sequence (Q8TDS4 whole entry): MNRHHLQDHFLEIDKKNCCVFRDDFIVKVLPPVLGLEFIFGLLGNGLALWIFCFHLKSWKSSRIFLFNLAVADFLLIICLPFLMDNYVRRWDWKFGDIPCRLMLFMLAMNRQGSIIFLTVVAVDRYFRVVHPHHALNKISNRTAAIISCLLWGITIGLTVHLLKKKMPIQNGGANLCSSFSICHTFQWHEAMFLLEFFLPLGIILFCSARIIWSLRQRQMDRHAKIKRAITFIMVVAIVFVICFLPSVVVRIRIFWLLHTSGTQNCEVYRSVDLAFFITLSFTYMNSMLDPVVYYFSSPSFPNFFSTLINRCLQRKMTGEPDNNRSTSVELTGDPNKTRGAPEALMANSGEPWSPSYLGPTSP
Method: as §1, §2, §3

[14] = at 10,000 nM, N = 5, [3H]-DADLE 2.69 nM, read-out: Primary Binding %DOR
[15] = primary binding, 10,000 nM, last figure of the line = mean of the 4 before it, read-out: DOR, PDSP raw data, mean

SMILES	inhibition at 10 µM [1]	inhibition at 10 µM [2]	BZP Rat Brain Site, PDSP raw data, mean [3]	inhibition at 10 µM [4]	inhibition at 10 µM [5]	inhibition at 10 µM [6]	inhibition at 10 µM [7]	inhibition at 10 µM [8]	inhibition at 10 µM [9, 14]	inhibition at 10 µM [9, 15]	Ca channel human, PDSP raw data, mean [10]	inhibition at 10 µM [11]	Alpha7, PDSP raw data, mean [12]	inhibition at 10 µM [13]	Ki [3]	Binding Affinity BZR % Inhibition (Primary) [3]
CC(C)c1noc(-c2ncn3c2[C@@H](C)N=C(c2ccccc2F)c2cc(Cl)ccc2-3)n1 [Compound 37, (R)-5-(8-Chloro-6-(2′-fluorophenyl)-4-methyl-4H-benzo[f]imidazo[1,5-a][1,4]diazepin-3-yl)-3-isopropyl-1,2,4-oxadiazole]	8.56%	6.39%	74.07%	-23.4%	6.55%	52.2%	-10.1%	15.6%	31.9 ± 9.58%	31.9%	7.04%	18.8%	21.26%	35.2%	–	–
C[C@H]1N=C(c2ccccc2F)c2cc(Cl)ccc2-n2cnc(-c3nc(C4CC4)no3)c21 [Compound 38, (R)-5-(8-Chloro-6-(2′-fluorophenyl)-4-methyl-4H-benzo[f]imidazo[1,5-a][1,4]diazepin-3-yl)-3-cyclopropyl-1,2,4-oxadiazole]	10%	5.24%	88.28%	6.92%	1.75%	55.5%	4.3%	19.3%	42.8 ± 8.94%	42.7%	30.64%	12.4%	11.55%	-1.1%	–	–
CCc1noc(-c2ncn3c2CN=C(c2ccccc2F)c2cc(C4CC4)ccc2-3)n1 [Compound 44, 5-(8-Cyclopropyl-6-(2′-fluorophenyl)-4H-benzo[f]imidazo[1,5-a][1,4]diazepin-3-yl)-3-ethyl-1,2,4-oxadiazole]	18.5%	20.6%	–	11.8%	3.97%	48.2%	21.3%	-0.6%	81.3 ± 4.76%	81.3%	36.68%	7.56%	-24.22%	-11.9%	0.194 ± 0.0627 µM	96.52 ± 2.57%
CCc1noc(-c2ncn3c2[C@@H](C)N=C(c2ccccc2F)c2cc(C4CC4)ccc2-3)n1 [Compound 46, (R)-5-(8-Cyclopropyl-6-(2′-fluorophenyl)-4-methyl-4H-benzo[f]imidazo[1,5-a][1,4]diazepin-3-yl)-3-ethyl-1,2,4-oxadiazole]	25.1%	21.7%	–	9.97%	-6.06%	30.9%	-6.74%	8.95%	–	67.3%	36.53%	10.4%	4.57%	-17.2%	3.79 ± 0.632 µM	65.25 ± 5.33%
